Values of other authors, collected in patent US10864174B2, “Method maintaining iron homeostasis with shogaols” (priority 2016, dated 2020).
pIC50: −log10 of the molar value.

Assays:
[1] = system: HCT-116 human colon cancer cells; details: one value given for both cell lines, read-out: IC50, growth inhibition
[2] = system: H1299 human lung cancer cells; details: one value given for both cell lines, read-out: IC50, growth inhibition
arachidonic acid pathway = details: compared with [6]-gingerol
[3] = system: nitric oxide (NO) synthesis; details: compared with [6]-gingerol

| pIC50 [1] | pIC50 [2] | Compound | inhibitory effects on the arachidonic acid pathway (arachidonic acid pathway) | inhibitory effects on nitric oxide (NO) synthesis [3] |
| --- | --- | --- | --- | --- |
| ~3.82 | ~3.82 | CCCCC[C@H](O)CC(=O)CCc1ccc(O)c(OC)c1 [[6]-gingerol, reference compound] | – | – |
| ~5.10 | ~5.10 | CCCCC/C=C/C(=O)CCc1ccc(O)c(OC)c1 [[6]-shogaol] | much stronger inhibitory effects | much stronger inhibitory effects |
